The record followed here is patent publication US4885299A, “2-(2,3-dihydro-2-oxo-3-benzofuranyl)acetic acids antihypoxic and nootropic effects having” (ADIR Et Cie, priority 1987, dated 1989).

Structures can show the parent of a compound that is named as a salt. Where two headings read alike, the source gives them in different places.

Test [1] relates to brain energy-rich compounds (ATP, ADP, AMP). Kind of test: Acute hypoxia in rats; protection of tissue energy-rich compounds in brain (ATP, energy content). As to conditions: for % inhibition of the effects of hypoxia, ATP / % inhibition of the effects of hypoxia, EC (tissue energy content): 3% oxygen for 2 minutes. In kind it is in vivo, Male Fischer 344 rats (Charles River). As to the method: (§1) The compounds of the present invention were tested in respect of their capacity to prolong the survival of cerebral tissue during acute hypoxia in mice, or to maintain the level of tissue energy-rich compounds in rats subjected to a fall in the oxygen supply [Pharmacology of Cerebral Ischemia, p. 334-339 (1968) Elsevier Science Publishers B.V., J. Krieglstein ed.]. […] Forsch. Drug. Res. (1986), 36 II No. 9, p. 1314-1320].
Whereas the control rats breath a gaseous mixture containing 21% of oxygen and 79% of nitrogen, the rats subjected to hypoxia breath a mixture of 3% oxygen and 97% nitrogen for 2 minutes.
At the end of the hypoxic period, the animals are rapidly sacrificed by total immersion in liquid nitrogen. The frozen brain is removed and the energy-rich compounds (ATP, ADP, AMP) are extracted and assayed by the luciferin luminescence method.
The tissue energy content (EC) is calculated according to ATKINSON's formula: [formula]

The subject of test [2] is Acute hypoxia in mice; survival of the brain. Kind of test: Acute hypoxia in mice (hypobaric); brain survival time to final respiratory gasp. In kind it is in vivo, Male CD1 mice (Charles River). As to the method:
as §1
The survival of the brain is assessed by measuring the time at which the final respiratory gasp is observed.
The survival time of a treated batch is compared with that of a control batch receiving only the solvent.
The percentage increase in the survival time after the animals are treated with the compounds of the invention is shown in Table II.

The mark [3] stands for this setting: 100 mg/kg I.P., 30 minutes before hypoxia, mice.
Setting [4] is: Mus musculus, ip, 30 mg/kg I.P., 30 minutes before hypoxia, mice, read-out: Percentage increase in the survival time.
[5] abbreviates: Mus musculus, ip, 100 mg/kg I.P., 30 minutes before hypoxia, mice, read-out: Percentage increase in the survival time.
The mark [6] stands for this setting: Mus musculus, ip, read-out: Percentage increase in the survival time.

Consider `O=C(CC1(c2ccccc2)C(=O)Oc2ccc(Cl)cc21)N1CCN(c2ccc(C(F)(F)F)cn2)CC1` (centres unmarked) [Example 9, 2-(5-Chloro-2,3-dihydro-2-oxo-3-phenyl-3-benzofuranyl)-1-[4-(5-trifluoromethyl-2-pyridyl)piperazinyl]-1-oxoethane], for which, in test [1] (30 mg/kg I.P.), the “% inhibition of the effects of hypoxia, ATP” value (shortened to “% inhibition … ATP”) came out at 65.6%. For the same molecule, the “% inhibition of the effects of hypoxia, EC (tissue energy content)” value (“% inhibition … (tissue energy content)” below) in test [1] (30 mg/kg I.P.) is listed as 60.1%. Also, the “Percentage increase in the survival time” value in test [2] (3 mg/kg I.P., 30 minutes before hypoxia, mice) was “+65%”; in test [2] (10 mg/kg I.P., 30 minutes before hypoxia, mice) it was “+82%”; in test [2] (30 mg/kg I.P., 30 minutes before hypoxia, mice) it was “+77%”; in test [2] (setting [3]), “greater than 180%”; in test [2] (100 mg/kg I.P., 30 minutes before hypoxia, mice, listed as Ex. 9), “+183%”.

Consider `O=C(CC1(c2ccccc2)C(=O)Oc2ccc(Cl)cc21)N1CCN(Cc2ccc3c(c2)OCO3)CC1` (centres unmarked) [Example 16, 2-(5-Chloro-2,3-dihydro-2-oxo-3-phenyl-3-benzofuranyl)-1-[4-(3,4-methylenedioxybenzyl)piperazinyl]-1-oxoethane], for which, in test [1] (100 mg/kg I.P.), the “% inhibition … ATP” value was 77.5% and the “% inhibition … (tissue energy content)” value was 76.3%. Moreover, the “Percentage increase in the survival time” value in test [2] (100 mg/kg I.P., 30 minutes before hypoxia, mice, listed as Ex. 16) was “+100%”. The change in vivo at 30 mg/kg in test [2] (setting [4]) was 64%. The change in vivo at 100 mg/kg in test [2] (setting [5]) came out at 100%.

`O=C(CC1(c2ccccc2)C(=O)Oc2ccc(F)cc21)N1CCN(Cc2ccc3c(c2)OCO3)CC1` (centres unmarked) [Example 20, 2-(5-Fluoro-2,3-dihydro-2-oxo-3-phenyl-3-benzofuranyl)-1-[4-(3,4-methylenedioxybenzyl)piperazinyl]-1-oxoethane hydrochloride]: in test [1] (30 mg/kg I.P.), the “% inhibition … ATP” value amounted to 56.9% and the “% inhibition … (tissue energy content)” value came out at 61.3%. Further, in test [1] (100 mg/kg I.P.), the “% inhibition … ATP” value worked out at 70.2% and the “% inhibition … (tissue energy content)” value is listed as 71.5%. Further, the “Percentage increase in the survival time” value in test [2] (100 mg/kg I.P., 30 minutes before hypoxia, mice, listed as Ex. 20, hydrochloride) is given as “+100%”. In addition, the change in vivo at 10 mg/kg in test [2] (Mus musculus, ip, 10 mg/kg I.P., 30 minutes before hypoxia, mice, read-out: Percentage increase in the survival time) was found to be 52%. Besides, in test [2] (setting [4]), the change in vivo at 30 mg/kg came to 104%. The change in vivo at 100 mg/kg in test [2] (setting [5]) came out at 100%. For the same molecule, the change in vivo at 300 mg/kg in test [2] (Mus musculus, ip, 300 mg/kg I.P., 30 minutes before hypoxia, mice, read-out: Percentage increase in the survival time) worked out at 128%.

As to `CN(C)CCOC(=O)COc1ccc(Cl)cc1` [Meclofenoxate, meclofenoxate, reference compound], in test [1] (300 mg/kg I.P.), the “% inhibition … ATP” value is 59.7% and the “% inhibition … (tissue energy content)” value is 69.6%. For the same molecule, in test [2] (setting [3]), the “Percentage increase in the survival time” value is reported as “+22%”. In addition, in test [2] (setting [6]), the change in vivo at 30 mg/kg amounted to 4%, the change in vivo at 100 mg/kg turned out to be 22% and the change in vivo at 600 mg/kg was determined as 190%.

As for `O=C(O)CC1(c2ccccc2)C(=O)Oc2ccc(Cl)cc21` (centres unmarked) [Example 1, 2-(5-Chloro-2,3-dihydro-2-oxo-3-phenyl-3-benzofuranyl)acetic acid], in test [1] (100 mg/kg I.P.), the “% inhibition … ATP” value is 54% and the “% inhibition … (tissue energy content)” value is reported as 61.7%. In test [2] (setting [5]), the change in vivo at 100 mg/kg was determined as 46%.

Take `NC(=O)CN1CCCC1=O` [Piracetam, piracetam, reference compound]: the “antihypoxic effect / protection in words” value in test [1] (300 mg/kg) is reported as “only very little protection”. Moreover, the “% inhibition … (tissue energy content)” value in test [1] (300 mg/kg I.P.) came to 1.6%. For the same molecule, in test [2] (setting [3]), the “Percentage increase in the survival time” value was “+11%”. Also, the change in vivo at 100 mg/kg in test [2] (setting [5]) worked out at 11%. The change in vivo at 1000 mg/kg in test [2] (Mus musculus, ip, 1000 mg/kg I.P., 30 minutes before hypoxia, mice, read-out: Percentage increase in the survival time) came to 25%.
